Reference: article PMC9403976, “Elucidating the path to Plasmodium prolyl-tRNA synthetase inhibitors that overcome halofuginone resistance” (Nature Communications, 2022)
Values joined by “and” are separate entries in the source; they are usually repeats but may differ in a detail not shown here. Equal values may be shown once. Read-outs that look alike come from different tables or passages of the source.

How the values were obtained:
HsProRS = HsProRS (Homo sapiens, UniProt P07814); assay: TR-FRET ligand displacement assay with tracer MAT379 (CoraFluor-1-Halo and anti-His6 antibody formats); assay type: binding; set-up: made in house; host or cells: E. coli SoluBL-21; conditions: for TR-FRET dose-response, normalized signal (SI Fig 11): individual replicates
Sequence of HsProRS (P07814 996-1512): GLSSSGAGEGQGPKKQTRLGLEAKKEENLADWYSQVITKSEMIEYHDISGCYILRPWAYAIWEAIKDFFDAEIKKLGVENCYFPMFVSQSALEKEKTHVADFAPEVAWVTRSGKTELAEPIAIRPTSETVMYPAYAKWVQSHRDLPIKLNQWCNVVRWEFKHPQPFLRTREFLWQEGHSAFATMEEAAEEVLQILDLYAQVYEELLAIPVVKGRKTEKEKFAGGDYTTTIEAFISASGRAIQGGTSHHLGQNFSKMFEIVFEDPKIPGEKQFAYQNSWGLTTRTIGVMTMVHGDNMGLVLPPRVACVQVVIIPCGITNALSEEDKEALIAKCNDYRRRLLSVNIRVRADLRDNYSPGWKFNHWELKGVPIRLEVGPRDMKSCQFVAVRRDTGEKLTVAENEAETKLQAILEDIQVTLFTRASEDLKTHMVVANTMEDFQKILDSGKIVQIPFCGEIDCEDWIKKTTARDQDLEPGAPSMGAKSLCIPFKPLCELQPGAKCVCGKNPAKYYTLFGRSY

[1] = system: halofuginone-induced P. falciparum (elevated proline homeostasis); assay: P. falciparum ABS growth assay, SYBR Green, 72 h, halofuginone-induced parasites; assay type: cell-based, Plasmodium falciparum
Text: Parasites were maintained under standard culture conditions as described previously[56],[57]. […] The P. falciparum Dd2 cell lines used in this study (Dd2-2D4, halofuginone-induced, and HFGR-I) have previously undergone whole genome sequencing in our labs. They were also routinely assayed and EC50 values determined using the ABS growth assay (see below) with a panel of standard antimalarial compounds, including halofuginone which has differential activity for the three Dd2 lines used in these experiments. Data were cross-referenced for consistency with literature reported values and data previously acquired in the lab.
This assay was performed as previously described. In short, P. falciparum erythrocytic-stage parasites at 1% parasitemia and 1% hematocrit in RPMI + 0.5% Albumax were seeded at 40 μL/well in 384-well plates with test compounds in triplicate, dose-response format with 10 μM dihydroartemisinin as a kill-control and blank (no compound) wells as a growth-control. […] After 72 h, growth was quantified by measuring fluorescence (Molecular Devices SpectraMax iD5) following SYBR Green 1 staining. Data were analyzed in Excel and plotted in PRISM (V. 8.4.3–9.1.0, GraphPad).

PfcProRS = biological target: T1, PfcProRS (Plasmodium falciparum, UniProt Q8I5R7); assay type: binding; conditions: single replicates
T1 construct: made in house; host or cells: E. coli SoluBL-21
T1 sequence (Q8I5R7 249-746): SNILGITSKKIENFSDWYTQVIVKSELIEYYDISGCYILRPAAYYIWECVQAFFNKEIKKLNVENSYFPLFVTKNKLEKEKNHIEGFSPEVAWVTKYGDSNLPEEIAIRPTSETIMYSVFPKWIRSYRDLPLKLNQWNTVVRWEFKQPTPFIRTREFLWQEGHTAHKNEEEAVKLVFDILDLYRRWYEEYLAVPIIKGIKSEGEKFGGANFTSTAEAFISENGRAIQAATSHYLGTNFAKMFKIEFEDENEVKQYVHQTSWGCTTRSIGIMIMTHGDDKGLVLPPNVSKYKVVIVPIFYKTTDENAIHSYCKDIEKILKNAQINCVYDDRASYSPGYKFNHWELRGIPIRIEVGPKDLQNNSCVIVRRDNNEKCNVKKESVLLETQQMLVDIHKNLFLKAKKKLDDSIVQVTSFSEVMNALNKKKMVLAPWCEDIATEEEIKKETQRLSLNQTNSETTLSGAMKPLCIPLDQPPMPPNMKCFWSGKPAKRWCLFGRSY

P. falciparum Dd2-2D4 = assay: P. falciparum asexual blood stage (ABS) growth assay, SYBR Green, 72 h, wild-type parasites; assay type: cell-based, Plasmodium falciparum; conditions: for ABS growth dose-response, normalized signal (Replicates 1-3): Dd2-2D4

O=C(NC1Cc2ccccc2C1)c1nccnc1NC(=O)C1CCC1 [compound 20]
Kd (HsProRS; HsProRS (KD [nM]) mean, no added proline/ATP (-)): 738 nM | Kd (HsProRS; HsProRS - best Kd, SI Fig 16a, values on -log scale): 13.2 nM | normalized TR-FRET ligand displacement signal, dose-response replicates (SI Fig 6) (HsProRS; Log[inhibitor] (M) -5.000): 1.86E-01 and 1.74E-01 and 2.39E-01 | TR-FRET dose-response, normalized signal (SI Fig 11) (HsProRS; Log[inhibitor] (M) -5.000): 1.04E-01 and 5.16E-02 and 1.08E-01 | normalized TR-FRET ligand displacement signal, dose-response replicates (SI Fig 6) (HsProRS; Log[inhibitor] (M) -5.301): 4.97E-01 and 4.61E-01 and 4.31E-01 | TR-FRET dose-response, normalized signal (SI Fig 11) (HsProRS; Log[inhibitor] (M) -5.301): 1.41E-01 and 1.42E-01 and 1.77E-01 | normalized TR-FRET ligand displacement signal, dose-response replicates (SI Fig 6) (HsProRS; Log[inhibitor] (M) -5.601): 6.11E-01 and 7.58E-01 and 7.79E-01 | TR-FRET dose-response, normalized signal (SI Fig 11) (HsProRS; Log[inhibitor] (M) -5.601): 3.04E-01 and 2.78E-01 and 2.50E-01 | normalized TR-FRET ligand displacement signal, dose-response replicates (SI Fig 6) (HsProRS; Log[inhibitor] (M) -5.904): 8.89E-01 and 8.92E-01 and 8.45E-01 | TR-FRET dose-response, normalized signal (SI Fig 11) (HsProRS; Log[inhibitor] (M) -5.904): 4.25E-01 and 3.97E-01 and 4.79E-01 | normalized TR-FRET ligand displacement signal, dose-response replicates (SI Fig 6) (HsProRS; Log[inhibitor] (M) -6.208): 9.16E-01 and 8.68E-01 and 9.52E-01 | TR-FRET dose-response, normalized signal (SI Fig 11) (HsProRS; Log[inhibitor] (M) -6.208): 6.09E-01 and 5.97E-01 and 5.95E-01 | normalized TR-FRET ligand displacement signal, dose-response replicates (SI Fig 6) (HsProRS; Log[inhibitor] (M) -6.509): 1.03E+00 and 8.94E-01 and 8.53E-01 | TR-FRET dose-response, normalized signal (SI Fig 11) (HsProRS; Log[inhibitor] (M) -6.509): 6.97E-01 and 7.43E-01 and 6.91E-01 | normalized TR-FRET ligand displacement signal, dose-response replicates (SI Fig 6) (HsProRS; Log[inhibitor] (M) -6.796): 1.03E+00 (2×) and 1.11E+00 | TR-FRET dose-response, normalized signal (SI Fig 11) (HsProRS; Log[inhibitor] (M) -6.796): 8.43E-01 and 8.17E-01 and 8.38E-01 | normalized TR-FRET ligand displacement signal, dose-response replicates (SI Fig 6) (HsProRS; Log[inhibitor] (M) -7.108): 9.80E-01 and 1.08E+00 and 1.02E+00 | TR-FRET dose-response, normalized signal (SI Fig 11) (HsProRS; Log[inhibitor] (M) -7.108): 8.72E-01 and 8.51E-01 and 8.01E-01 | normalized TR-FRET ligand displacement signal, dose-response replicates (SI Fig 6) (HsProRS; Log[inhibitor] (M) -7.409): 9.83E-01 and 1.12E+00 and 9.82E-01 | TR-FRET dose-response, normalized signal (SI Fig 11) (HsProRS; Log[inhibitor] (M) -7.409): 9.24E-01 and 8.62E-01 and 9.39E-01 | normalized TR-FRET ligand displacement signal, dose-response replicates (SI Fig 6) (HsProRS; Log[inhibitor] (M) -7.710): 9.31E-01 and 9.49E-01 and 8.80E-01 | TR-FRET dose-response, normalized signal (SI Fig 11) (HsProRS; Log[inhibitor] (M) -7.710): 9.14E-01 and 9.13E-01 and 9.09E-01 | normalized TR-FRET ligand displacement signal, dose-response replicates (SI Fig 6) (HsProRS; Log[inhibitor] (M) -8.000): 1.05E+00 and 9.80E-01 and 9.83E-01 | TR-FRET dose-response, normalized signal (SI Fig 11) (HsProRS; Log[inhibitor] (M) -8.000): 9.16E-01 and 9.29E-01 and 9.47E-01 | normalized TR-FRET ligand displacement signal, dose-response replicates (SI Fig 6) (HsProRS; Log[inhibitor] (M) -8.301): 9.29E-01 and 1.08E+00 and 8.52E-01 | TR-FRET dose-response, normalized signal (SI Fig 11) (HsProRS; Log[inhibitor] (M) -8.301): 9.16E-01 and 9.69E-01 and 9.32E-01 | normalized TR-FRET ligand displacement signal, dose-response replicates (SI Fig 6) (HsProRS; Log[inhibitor] (M) -8.602): 9.34E-01 and 1.03E+00 and 1.00E+00 | TR-FRET dose-response, normalized signal (SI Fig 11) (HsProRS; Log[inhibitor] (M) -8.602): 9.06E-01 and 9.54E-01 and 9.32E-01 | normalized TR-FRET ligand displacement signal, dose-response replicates (SI Fig 6) (HsProRS; Log[inhibitor] (M) -9.000): 1.01E+00 and 9.37E-01 and 8.87E-01 | TR-FRET dose-response, normalized signal (SI Fig 11) (HsProRS; Log[inhibitor] (M) -9.000): 9.11E-01 and 9.90E-01 and 9.12E-01 | normalized TR-FRET ligand displacement signal, dose-response replicates (SI Fig 6) (HsProRS; Log[inhibitor] (M) -9.301): 9.68E-01 and 9.96E-01 and 9.12E-01 | TR-FRET dose-response, normalized signal (SI Fig 11) (HsProRS; Log[inhibitor] (M) -9.301): 9.37E-01 and 9.39E-01 and 8.38E-01 | dose-response value, Replicates 1-3 (SI Fig 2e) ([1]; Log[inhibitor] (M) -8.699): 102 | dose-response value, Replicates 1-3 (SI Fig 2e) ([1]; Log[inhibitor] (M) -9.000): 101 | dose-response signal (normalized), SI Fig 8 (PfcProRS; Log[inhibitor] (M) -5.000): -3.34E-02 and -2.16E-02 and 4.43E-02 | dose-response signal (normalized), SI Fig 8 (PfcProRS; Log[inhibitor] (M) -5.301): 9.72E-02 and 2.14E-03 and 9.57E-02 | dose-response signal (normalized), SI Fig 8 (PfcProRS; Log[inhibitor] (M) -5.601): 1.29E-01 and 1.68E-01 and 1.72E-01 | dose-response signal (normalized), SI Fig 8 (PfcProRS; Log[inhibitor] (M) -5.904): 2.39E-01 and 2.05E-01 and 1.23E-01 | dose-response signal (normalized), SI Fig 8 (PfcProRS; Log[inhibitor] (M) -6.208): 3.45E-01 and 2.90E-01 and 4.22E-01 | dose-response signal (normalized), SI Fig 8 (PfcProRS; Log[inhibitor] (M) -6.509): 6.21E-01 and 6.16E-01 and 6.02E-01 | dose-response signal (normalized), SI Fig 8 (PfcProRS; Log[inhibitor] (M) -6.796): 8.63E-01 and 8.36E-01 and 8.81E-01 | dose-response signal (normalized), SI Fig 8 (PfcProRS; Log[inhibitor] (M) -7.108): 1.04E+00 and 9.78E-01 and 9.41E-01 | dose-response signal (normalized), SI Fig 8 (PfcProRS; Log[inhibitor] (M) -7.409): 1.10E+00 and 1.00E+00 and 1.03E+00 | dose-response signal (normalized), SI Fig 8 (PfcProRS; Log[inhibitor] (M) -7.710): 1.05E+00 and 1.02E+00 (2×) | dose-response signal (normalized), SI Fig 8 (PfcProRS; Log[inhibitor] (M) -8.000): 1.14E+00 and 1.06E+00 and 1.15E+00 | dose-response signal (normalized), SI Fig 8 (PfcProRS; Log[inhibitor] (M) -8.301): 1.07E+00 and 1.03E+00 and 9.53E-01 | dose-response signal (normalized), SI Fig 8 (PfcProRS; Log[inhibitor] (M) -8.602): 1.04E+00 and 1.07E+00 and 9.70E-01 | dose-response signal (normalized), SI Fig 8 (PfcProRS; Log[inhibitor] (M) -9.000): 1.05E+00 and 1.02E+00 and 1.08E+00 | dose-response signal (normalized), SI Fig 8 (PfcProRS; Log[inhibitor] (M) -9.301): 1.08E+00 and 9.05E-01 and 9.37E-01 | ABS growth dose-response, normalized signal (Replicates 1-3) (P. falciparum Dd2-2D4; Log[inhibitor] (M) -5.000): 1 | ABS growth dose-response, normalized signal (Replicates 1-3) (P. falciparum Dd2-2D4; Log[inhibitor] (M) -5.301): 7 | EC50 (P. falciparum Dd2-2D4; Plasmodium falciparum, DD2, SI Fig 16b, values on -log scale, read-out: ABS - Dd2-2D4 (converted)): 3740 nM
